In the NIST ThermoML archive (doi:10.1016/j.jct.2010.12.007):
± gives the expanded uncertainty stated by the source.

Key:
[1] = Crystal; for vapor or sublimation pressure: Transpiration method; for Normal melting temperature: DTA
[2] = Molar enthalpy of transition or fusion; conditions: Crystal; DSC

N#Cc1ccc(NS(=O)(=O)c2ccc(N)cc2)cc1 [4-amino-N-(4-cyanophenyl)benzenesulfonamide]
[1]
Conditions | vapor or sublimation pressure [kPa]
420.15 K | 6.74e-06 ± 1.4e-06
420.95 K | 7.23e-06 ± 1.5e-06
421.35 K | 7.91e-06 ± 1.6e-06
424.75 K | 1.13e-05 ± 2.3e-06
426.55 K | 1.36e-05 ± 2.8e-06
428.35 K | 1.66e-05 ± 3.4e-06
429.65 K | 1.94e-05 ± 4e-06
431.35 K | 2.11e-05 ± 4.3e-06
431.75 K | 2.28e-05 ± 4.6e-06
432.35 K | 2.33e-05 ± 4.7e-06
433.05 K | 2.63e-05 ± 5.4e-06
434.75 K | 3.17e-05 ± 6.5e-06
435.75 K | 3.58e-05 ± 7.3e-06
437.15 K | 4.24e-05 ± 8.6e-06
437.55 K | 4.37e-05 ± 8.9e-06

Conditions | Molar enthalpy of transition or fusion [kcal/mol] | Normal melting temperature [°C]
[1] | – | 178.4 ± 0.5
[2] | 7.39 ± 0.287 | –

Nc1ccc(S(=O)(=O)Nc2ccc([N+](=O)[O-])cc2)cc1 [4-amino-N-(4-nitrophenyl)benzenesulfonamide]
[1]
Conditions | vapor or sublimation pressure [kPa]
405.55 K | 1.5e-06 ± 3.2e-07
409.45 K | 2.18e-06 ± 4.6e-07
412.85 K | 2.3e-06 ± 4.8e-07
415.15 K | 3.41e-06 ± 7.1e-07
417.25 K | 4.01e-06 ± 8.3e-07
418.75 K | 4.34e-06 ± 9e-07
420.05 K | 5.46e-06 ± 1.1e-06
421.55 K | 5.63e-06 ± 1.2e-06
423.25 K | 6.16e-06 ± 1.3e-06
424.65 K | 7.3e-06 ± 1.5e-06
426.25 K | 8.92e-06 ± 1.8e-06
428.75 K | 1.05e-05 ± 2.1e-06
431.35 K | 1.28e-05 ± 2.6e-06
432.05 K | 1.41e-05 ± 2.9e-06
435.15 K | 1.81e-05 ± 3.7e-06
438.25 K | 2.28e-05 ± 4.6e-06

Conditions | Molar enthalpy of transition or fusion [kcal/mol] | Normal melting temperature [°C]
[1] | – | 165.8 ± 0.5
[2] | 6.67 ± 0.287 | –

O=[N+]([O-])c1ccc(NS(=O)(=O)c2ccccc2)cc1 [N-(4-nitrophenyl)benzenesulfonamide]
[1]
Conditions | vapor or sublimation pressure [kPa]
380.15 K | 9.47e-06 ± 1.9e-06
384.15 K | 1.55e-05 ± 3.2e-06
385.15 K | 1.72e-05 ± 3.5e-06
387.15 K | 2.09e-05 ± 4.3e-06
390.15 K | 2.84e-05 ± 5.8e-06
391.15 K | 3.17e-05 ± 6.5e-06
392.15 K | 3.47e-05 ± 7.1e-06
393.15 K | 3.88e-05 ± 7.9e-06
394.15 K | 4.04e-05 ± 8.2e-06
395.15 K | 4.64e-05 ± 9.4e-06
396.65 K | 5.13e-05 ± 1e-05
401.15 K | 8.37e-05 ± 1.7e-05
401.65 K | 8.63e-05 ± 1.7e-05

Conditions | Molar enthalpy of transition or fusion [kcal/mol] | Normal melting temperature [°C]
[1] | – | 138.2 ± 0.5
[2] | 6.86 ± 0.287 | –
